Format in all cases: cell-based
The subject of test [1] is OCI-LY10 cells (MYD88 mutant). The test can be described thus: Cell viability assay (CellTiter-Glo) with OCI-LY10. The conditions noted are these: Homo sapiens, MYD88 mutant line, read-out: OCI-LY10 Viability, CTG IC50. How it is done:
Compound-mediated viability effect on OCI-LY10 or TMD8 was quantitatively determined using the CellTiter-Glo® Luminescent Cell Viability Assay kit from Promega (Catalog number G7570) following manufacturer's recommended procedures. Briefly, OCI-LY10 or TMD8 cells were seeded into 384 well plates (Grenier Bio-One, Catalog number 781080) with a density of 10,000 cells per well. Compounds were then added to the assay plate with final top concentration of 10 μM and 1:3 dilution series with total of 9 doses. The final DMSO concentration was normalized to 0.2%. The assay plates were incubated at 37° C. for 4 days under 5% CO2. Then the assay plate was equilibrated at room temperature for 10 minutes. To determine cell viability, 30 μL CellTiter Glo reagent was added to each well and the assay plate was centrifuged at 1000 rpm for 30 second, incubated at room temperature for 10 min, and analyzed by detecting the luminescence using a multimode plate reader (EnVision 2105, PerkinElmer). The data was then analyzed by software Prism 7.0 from GraphPad and the dose response curves were fit using a three-parameter logistic equation to calculate IC50.
(In general: In ATP-based viability assays light output follows the ATP content of the culture.)

For test [2], the system named is OCI-LY19 cells (MYD88 WT). Description: Cell viability (CTG) with OCI-LY19. The note with it: Homo sapiens, MYD88 WT line.
In test [3] the test system is SU-DHL2 cells (MYD88 mutant). The test can be described thus: Cell viability (CTG) with SU-DHL2. The conditions noted are these: Homo sapiens, SU-DHL-2; MYD88 mutant line.
A further test concerns U2932 cells (MYD88 WT). The test can be described thus: Cell viability (CTG) with U2932. The note with it: Homo sapiens, MYD88 WT line.
A further test relates to SU-DHL6 cells (MYD88 WT). The test can be described thus: Cell viability (CTG) with SU-DHL6. The note with it: Homo sapiens, SU-DHL-6; MYD88 WT line.

By IC50 is commonly meant the concentration that inhibits the measured activity by half. For the molecule `CC[C@@H]1CC(=O)N[C@@H]1COc1ncc(C#C[C@H]2CC[C@H](CN3CCC(OCCCc4cccc5c4n(C)c(=O)n5C4CCC(=O)NC4=O)CC3)CC2)c2cc(C(N)=O)c(OC)cc12` (some centres unmarked) [I-1], the IC50 in test [1] is 3.5 µM; in test [2] it was over 10 µM; in test [3] it was over 10 µM; in the test with U2932 cells (MYD88 WT) it was over 10 µM; in the test on SU-DHL6 cells (MYD88 WT), 4.1 µM.

The values are drawn from patent US20230089916A1, “IRAK DEGRADERS AND USES THEREOF” (Kymera Therapeutics, Inc., priority 2019, published 2023).
